The results in this text go back to ChEMBL document CHEMBL1148896, “BI-32169, a bicyclic 19-peptide with strong glucagon receptor antagonist activity from Streptomyces sp” (J Nat Prod, 2004).

Molecules are shown by their SMILES. pIC50: −log10 of the molar value. Bridge positions count the residues as written; N and C are the ends. Peptide text beside a SMILES is read from it. I, II: the chains in the order shown.

The experiment deals with Glucagon receptor (Homo sapiens, UniProt P47871). The experiment is described as follows: Antagonist activity at human glucagon receptor expressed in BHK21 cells assessed as inhibition of glucagon-induced cAMP elevation by RIA. The experiment is classed as functional, cell-based, BHK-21.
Glucagon receptor, sequence (P47871 whole entry): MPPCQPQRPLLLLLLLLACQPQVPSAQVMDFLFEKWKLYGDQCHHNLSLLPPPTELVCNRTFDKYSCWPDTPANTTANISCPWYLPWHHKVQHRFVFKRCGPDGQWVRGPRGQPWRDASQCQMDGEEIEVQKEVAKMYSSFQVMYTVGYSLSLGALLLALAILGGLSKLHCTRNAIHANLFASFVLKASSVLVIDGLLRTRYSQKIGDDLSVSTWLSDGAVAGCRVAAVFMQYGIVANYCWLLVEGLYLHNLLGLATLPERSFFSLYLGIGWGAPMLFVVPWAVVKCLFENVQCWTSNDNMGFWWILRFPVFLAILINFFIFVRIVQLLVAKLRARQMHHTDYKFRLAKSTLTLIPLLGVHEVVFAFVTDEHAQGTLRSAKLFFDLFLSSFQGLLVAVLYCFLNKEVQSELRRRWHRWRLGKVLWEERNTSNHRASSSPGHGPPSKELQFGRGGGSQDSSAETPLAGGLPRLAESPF
A word on the pIC50: it is the IC50 on a negative log10 scale, so that one unit is a factor of ten. On to `CC[C@H](C)[C@@H]1NC(=O)[C@@H]2CC(=O)NCC(=O)N[C@@H](CC(C)C)C(=O)N3CCC[C@H]3C(=O)N[C@@H](Cc3c[nH]c4ccccc34)C(=O)NCC(=O)N[C@@H](CSSC[C@@H](C(=O)O)NC(=O)[C@H](C)NC(=O)[C@H](Cc3c[nH]c4ccccc34)NC(=O)[C@@H]3CCCN3C(=O)[C@H]([C@@H](C)O)NC(=O)[C@H](CC(N)=O)NC(=O)[C@H](Cc3c[nH]c4ccccc34)NC(=O)CNC(=O)[C@@H]3CCCN3C1=O)C(=O)N1CCC[C@H]1C(=O)N[C@@H](CO)C(=O)N2` (GLPWGCPSDIPGWNTPWAC-OH; disulfide 6-19; lactam N-9), for which the negative logarithm of the IC50 (pIC50) is 6.36.
The same measure for `CC[C@H](C)[C@@H]1NC(=O)C[C@@H]2NC(=O)[C@H](CO)NC(=O)[C@@H]3CCCN3C(=O)[C@H](CSSC[C@@H](C(=O)OC)NC(=O)[C@H](C)NC(=O)[C@H](Cc3c[nH]c4ccccc34)NC(=O)[C@@H]3CCCN3C(=O)[C@H]([C@@H](C)O)NC(=O)[C@H](CC(N)=O)NC(=O)[C@H](Cc3c[nH]c4ccccc34)NC(=O)CNC(=O)[C@@H]3CCCN3C1=O)NC(=O)CNC(=O)[C@H](Cc1c[nH]c3ccccc13)NC(=O)[C@@H]1CCCN1C(=O)[C@H](CC(C)C)NC(=O)CNC2=O` (I: IPGWNTPWAC-OMe / II: cyclo(CPSDGLPWG); disulfide I:10-II:1; amide I:N-II:4): 6.49; for `CC1CC(=O)c2c(cc3c(-c4c(O)cc(O)c5c(O)c6c(cc45)OC(C)CC6=O)c(O)cc(O)c3c2O)O1` (stereo not drawn) [CEPHALOCHROMIN]: 4.70.
